Experimental data published in PubChem BioAssay AID330 (DTP/NCI, 2004).
Several values for one entry are separate records, joined by “and”; a condition that tells them apart may be missing. Equal values may be shown once. Inconclusive results and toxic doses are left out. How the source made its calls: active means survival T/C of 150% or more; inactive means T/C below 125% in these data.

Test system: P388 leukemia ip, CD2F1 mice, survival T/C
Test: NCI In Vivo Anticancer Drug Screen. Data for tumor model P388 Leukemia (intraperitoneal) in CD2F1 (CDF1) mice
Conditions: endpoint: median survival time, higher = longer survival
Method in brief: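 Mice carrying the transplanted tumor received test compound or vehicle. Survival was recorded in each group, and the value is the treated-group measurement divided by that of the vehicle-treated control group.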

[1] = dose: 6.25 mg/kg/injection, schedule: Q01DX009 (ip), vehicle: saline with Tween-80
[2] = dose: 12.5 mg/kg/injection, schedule: Q01DX009 (ip), vehicle: saline with Tween-80
[3] = dose: 25.0 mg/kg/injection, schedule: Q01DX009 (ip), vehicle: saline with Tween-80
[4] = dose: 100.0 mg/kg/injection, schedule: Q01DX001 (ip), vehicle: Klucel (hydroxypropylcellulose) (HPC)
[5] = dose: 200.0 mg/kg/injection, schedule: Q01DX001 (ip), vehicle: Klucel (hydroxypropylcellulose) (HPC)
[6] = dose: 50.0 mg/kg/injection, schedule: Q01DX009 (ip), vehicle: saline with Tween-80
[7] = dose: 100.0 mg/kg/injection, schedule: Q01DX009 (ip), vehicle: saline with Tween-80
[8] = dose: 25.0 mg/kg/injection, schedule: Q01DX009 (ip), vehicle: other
[9] = dose: 50.0 mg/kg/injection, schedule: Q01DX009 (ip), vehicle: other
[10] = dose: 200.0 mg/kg/injection, schedule: Q01DX009 (ip), vehicle: saline with Tween-80
[11] = dose: 50.0 mg/kg/injection, schedule: Q01DX009 (ip), vehicle: saline
[12] = dose: 100.0 mg/kg/injection, schedule: Q01DX009 (ip), vehicle: saline
[13] = dose: 200.0 mg/kg/injection, schedule: Q01DX009 (ip), vehicle: saline
[14] = dose: 50.0 mg/kg/injection, schedule: Q01DX009 (ip), vehicle: Klucel (hydroxypropylcellulose) (HPC)
[15] = dose: 100.0 mg/kg/injection, schedule: Q01DX009 (ip), vehicle: Klucel (hydroxypropylcellulose) (HPC)
[16] = dose: 50.0 mg/kg/injection, schedule: Q01DX005 (ip), vehicle: saline
[17] = dose: 100.0 mg/kg/injection, schedule: Q01DX005 (ip), vehicle: saline

Measured: T/C

OCC1OC(OCC2OC(OC3(CO)OC(CO)C(O)C3O)C(O)C(O)C2O)C(O)C(O)C1O (stereo not drawn)
inactive: dose: 100.0 mg/kg/injection, schedule: Q01DX001 (ip), vehicle: saline 102 % of control | dose: 200.0 mg/kg/injection, schedule: Q01DX001 (ip), vehicle: saline 103 % of control | dose: 400.0 mg/kg/injection, schedule: Q01DX001 (ip), vehicle: saline 93 % of control

COC(=O)c1cc(=O)n(-c2cccc(OC)c2)c(SC)n1
inactive: dose: 25.0 mg/kg/injection, schedule: Q04DX002 (ip), vehicle: Klucel (hydroxypropylcellulose) (HPC) 107 % of control | dose: 50.0 mg/kg/injection, schedule: Q04DX002 (ip), vehicle: Klucel (hydroxypropylcellulose) (HPC) 103 % of control | dose: 100.0 mg/kg/injection, schedule: Q04DX002 (ip), vehicle: Klucel (hydroxypropylcellulose) (HPC) 104 % of control and 105 % of control

CC1OC(CC(=O)O)Cc2c1c(O)c1c(O)cc(-c3cc(=O)c4c(=O)c5c(c(=O)c=4c3=O)CC(CC(=O)O)OC5C)c(O)c1c2O (stereo not drawn)
inactive: [1] 100 % of control | [2] 102 % of control | [3] 103 % of control

C=CC(C)(C)C1(O)Oc2cc(OC)ccc2C=C1c1ccccc1 (stereo not drawn)
inactive: [4] 101 % of control | [5] 101 % of control | dose: 400.0 mg/kg/injection, schedule: Q01DX001 (ip), vehicle: Klucel (hydroxypropylcellulose) (HPC) 91 % of control

COC(=O)CCCc1ccc(OC)c(OC)c1
inactive: [2] 100 % of control | [3] 92 % of control | [6] 95 % of control | [7] 89 % of control

O=c1c2ccccc2nc(-c2ccccc2Cl)n1/N=C/c1ccc(Cl)cc1Cl
inactive: dose: 50.0 mg/kg/injection, schedule: Q01DX005 (ip), vehicle: saline with Tween-80 93 % of control | dose: 100.0 mg/kg/injection, schedule: Q01DX005 (ip), vehicle: saline with Tween-80 103 % of control | dose: 200.0 mg/kg/injection, schedule: Q01DX005 (ip), vehicle: saline with Tween-80 102 % of control

COc1cc2c(cc1OC)C1Cc3ccc4cc(OC)c(OC)cc4c3CN1CC2 (stereo not drawn)
inactive: [3] 90 % of control | [6] 100 % of control | [7] 95 % of control

[N-]=[N+]=CC(=O)Oc1ccc([N+](=O)[O-])cc1
inactive: dose: 3.13 mg/kg/injection, schedule: Q01DX009 (ip), vehicle: other 100 % of control | dose: 6.25 mg/kg/injection, schedule: Q01DX009 (ip), vehicle: other 98 % of control | dose: 12.5 mg/kg/injection, schedule: Q01DX009 (ip), vehicle: other 104 % of control | [8] 98 % of control and 97 % of control | [9] 89 % of control

Cc1ccc(NC(=O)Oc2c(C)cc(Cl)cc2C)c([N+](=O)[O-])c1
inactive: [6] 95 % of control | [10] 95 % of control

Cc1ccc(S(=O)(=O)OCC2(COS(=O)(=O)c3ccc(C)cc3)COC2)cc1
inactive: dose: 50.0 mg/kg/injection, schedule: Q01DX001 (ip), vehicle: Klucel (hydroxypropylcellulose) (HPC) 107 % of control | [4] 103 % of control | [5] 100 % of control

N#CC(NCC1(O)CCCCC1)C(O)c1ccccc1 (stereo not drawn)
inactive: dose: 25.0 mg/kg/injection, schedule: Q01DX009 (ip), vehicle: suspension in saline 94 % of control | dose: 50.0 mg/kg/injection, schedule: Q01DX009 (ip), vehicle: suspension in saline 108 % of control | dose: 100.0 mg/kg/injection, schedule: Q01DX009 (ip), vehicle: suspension in saline 109 % of control

CCNc1nn2ccccc2c1/C=C(/C#N)C(=O)OCC
inactive: dose: 25.0 mg/kg/injection, schedule: Q01DX001 (ip), vehicle: saline with Tween-80 94 % of control | dose: 50.0 mg/kg/injection, schedule: Q01DX001 (ip), vehicle: saline with Tween-80 91 % of control | dose: 100.0 mg/kg/injection, schedule: Q01DX001 (ip), vehicle: saline with Tween-80 91 % of control | dose: 200.0 mg/kg/injection, schedule: Q01DX001 (ip), vehicle: saline with Tween-80 91 % of control

CCSC(=O)c1cc(C(=O)SCC)cc(C(C)(C)C)c1
inactive: dose: 25.0 mg/kg/injection, schedule: Q01DX009 (ip), vehicle: saline 100 % of control and 105 % of control | [6] 100 % of control | [11] 98 % of control and 95 % of control | [7] 114 % of control | [12] 98 % of control and 101 % of control | [10] 124 % of control | [13] 107 % of control and 97 % of control

O=C(O)CNC(=O)C(F)(F)F
inactive: [6] 93 % of control | [7] 91 % of control | [10] 95 % of control

CC(/C=C/c1cccc(C)c1)=N\NC(N)=S
inactive: dose: 3.75 mg/kg/injection, schedule: Q01DX005 (ip), vehicle: Klucel (hydroxypropylcellulose) (HPC) 106 % of control | dose: 7.5 mg/kg/injection, schedule: Q01DX005 (ip), vehicle: Klucel (hydroxypropylcellulose) (HPC) 105 % of control | dose: 30.0 mg/kg/injection, schedule: Q01DX005 (ip), vehicle: Klucel (hydroxypropylcellulose) (HPC) 122 % of control

O=C1NC(=O)C(c2ccccc2)(c2ccc(O)cc2)N1 (stereo not drawn)
inactive: dose: 100.0 mg/kg/injection, schedule: Q04DX003 (ip), vehicle: saline with Tween-80 115 % of control | dose: 200.0 mg/kg/injection, schedule: Q04DX003 (ip), vehicle: saline with Tween-80 110 % of control | dose: 400.0 mg/kg/injection, schedule: Q04DX003 (ip), vehicle: saline with Tween-80 115 % of control

CC(=O)OCCN1CCN(CC/C=C2\c3ccccc3Sc3ccc(Cl)cc32)CC1
inactive: [1] 109 % of control | [2] 113 % of control | [3] 113 % of control

Cn1c2cc(F)ccc2c(=O)c2c(O)cc3c(c21)C=CC(C)(C)O3
inactive: dose: 50.0 mg/kg/injection, schedule: Q01DX005 (ip), vehicle: Klucel (hydroxypropylcellulose) (HPC) 94 % of control | dose: 100.0 mg/kg/injection, schedule: Q01DX005 (ip), vehicle: Klucel (hydroxypropylcellulose) (HPC) 92 % of control | dose: 200.0 mg/kg/injection, schedule: Q01DX005 (ip), vehicle: Klucel (hydroxypropylcellulose) (HPC) 94 % of control

CCCCCCCCCCCCCCCC(=O)N(CC#CCN(CCCN(C)C)C(=O)CCCCCCCCCCCCCCC)CCCN(C)C
inactive: [8] 95 % of control | [9] 87 % of control

Cc1cc(C)c(CSc2cc(N)nc(N)c2N)c(C)c1
inactive: [14] 104 % of control | [15] 107 % of control

Nc1nc(N)c(N=O)c(N)n1
inactive: dose: 44.0 mg/kg/injection, schedule: Q01DX009 (ip), vehicle: saline 104 % of control | dose: 66.0 mg/kg/injection, schedule: Q01DX009 (ip), vehicle: saline 104 % of control | [12] 104 % of control | dose: 150.0 mg/kg/injection, schedule: Q01DX009 (ip), vehicle: saline 102 % of control

CCCCCCCCCN1CCS(=O)(=O)CC1
inactive: [14] 94 % of control | [15] 98 % of control | dose: 200.0 mg/kg/injection, schedule: Q01DX009 (ip), vehicle: Klucel (hydroxypropylcellulose) (HPC) 103 % of control

CC(C)N1CCN(c2ccncc2S(=O)(=O)N2CCN(C)CC2)CC1
inactive: [11] 106 % of control | [12] 90 % of control | [13] 99 % of control

COC(=O)c1nc(N)nc(C(=O)OC)c1C(=O)c1ccc(Cl)cc1Cl
inactive: dose: 60.0 mg/kg/injection, schedule: Q01DX005 (ip), vehicle: saline with Tween-80 95 % of control | dose: 120.0 mg/kg/injection, schedule: Q01DX005 (ip), vehicle: saline with Tween-80 100 % of control

CCCCCCCCCCCCOCCCOP(=O)([O-])OCC[N+](C)(C)C
inactive: dose: 6.25 mg/kg/injection, schedule: Q01DX005 (ip), vehicle: saline 105 % of control | dose: 12.5 mg/kg/injection, schedule: Q01DX005 (ip), vehicle: saline 100 % of control | dose: 25.0 mg/kg/injection, schedule: Q01DX005 (ip), vehicle: saline 91 % of control | [16] 91 % of control | [17] 107 % of control

CCCCCCCCC1OCN2CC(CC)CCC12 (stereo not drawn)
inactive: [16] 107 % of control | [17] 108 % of control | dose: 200.0 mg/kg/injection, schedule: Q01DX005 (ip), vehicle: saline 108 % of control

CC(C)OC(=O)C(C)(C)Oc1ccc(C(=O)c2ccc(Cl)cc2)cc1
inactive: [6] 111 % of control | [7] 98 % of control | [10] 97 % of control
